# Data published in ChEMBL document CHEMBL5244255, “An insight on medicinal attributes of 1,2,4-triazoles” (Eur J Med Chem, 2020).
# Key:
# [1] = test system: Xanthomonas oryzae pv. oryzae; test: Antibacterial activity against Xanthomonas oryzae pv. oryzae assessed as bacterial growth inhibition; type: functional, organism-based
# [2] = test system: BT-20; test: Anticancer activity against human BT-20 cells assessed as cell growth inhibition incubated for 48 hrs by MTT assay; type: functional, cell-based; settings: BT-20, 48 h
# [3] = test system: DU-145; test: Anticancer activity against human DU-145 cells assessed as cell growth inhibition incubated for 48 hrs by MTT assay; type: functional, cell-based; settings: DU-145, 48 h
# [4] = test system: A549; test: Anticancer activity against human A549 cells assessed as cell growth inhibition incubated for 48 hrs by MTT assay; type: functional, cell-based; settings: A549, 48 h
# [5] = Anticancer activity against human SK-MEL-128 cells assessed as cell growth inhibition incubated for 48 hrs by MTT assay; type: functional, cell-based; settings: SK-MEL-128, 48 h
# [6] = test system: Candida albicans; test: Antifungal activity against Candida albicans Y0109 assessed as fungal growth inhibition; type: functional
# [7] = test system: Leishmania major; test: Potency index, ratio of test compound IC50 to miltefosine IC50 for antileishmanial activity against promastigotes stage of leishmania major; type: functional
# [8] = test system: Leishmania major; test: Antileishmanial activity against promastigotes stage of Leishmania major; type: functional, organism-based
# [9] = test system: Leishmania major; test: Potency index, ratio of test compound IC50 to amphotericin B IC50 for antileishmanial activity against promastigotes stage of leishmania major; type: functional
# [10] = test system: Mycobacterium tuberculosis; test: Antimycobacterial activity against Mycobacterium tuberculosis H37Rv; type: functional
# [11] = test system: Mycobacterium tuberculosis; test: Antimycobacterial activity against Mycobacterium tuberculosis H37Rv measured […] by MABA assay; type: functional
# [12] = test system: Mycobacterium tuberculosis; test: Potency index, ratio of test compound MIC to Pyrazinamide MIC for antimycobacterial activity against Mycobacterium tuberculosis H37Rv; type: functional
# [13] = test system: Mycobacterium tuberculosis; test: Antimycobacterial activity against Mycobacterium tuberculosis H37Rv measured after 8 to 9 days; type: functional; settings: time 8-9 day
# [14] = Inhibition of Mycobacterium tuberculosis shikimate dehydrogenase
# [15] = test system: MDA-MB-231; test: Antiproliferative activity against human MDA-MB-231 cells assessed as cell growth inhibition by MTT assay; type: functional, cell-based
# [16] = test system: Plasmodium falciparum; test: Antimalarial activity against Plasmodium falciparum; type: functional, organism-based
# [17] = test system: Jurkat; test: Antiproliferative activity against human jurkat cells assessed as cell growth inhibition incubated for 48 hrs by MTT assay; type: functional, cell-based
# [18] = test system: RS4-11; test: Antiproliferative activity against human RS4-11 cells assessed as cell growth inhibition incubated for 48 hrs by MTT assay; type: functional, cell-based; settings: RS4-11, 48 h
# [19] = test system: HeLa; test: Antiproliferative activity against human HeLa cells assessed as cell growth inhibition incubated for 48 hrs by MTT assay; type: functional, cell-based
# [20] = test system: HT-29; test: Antiproliferative activity against human HT-29 cells assessed as cell growth inhibition incubated for 48 hrs by MTT assay; type: functional, cell-based; settings: HT-29, 48 h
# [21] = test system: MCF7; test: Antiproliferative activity against human MCF7 cells assessed as cell growth inhibition incubated for 48 hrs by MTT assay; type: functional, cell-based; settings: MCF7, 48 h
# [22] = test system: Trypanosoma cruzi; test: Trypanocidal activity against amastigote stage of Trypanosoma cruzi; type: functional, organism-based
# [23] = test system: Trypanosoma cruzi; test: Trypanocidal activity against epimastigote stage of Trypanosoma cruzi; type: functional, organism-based
# [24] = test system: Staphylococcus aureus; test: Antibacterial activity against Staphylococcus aureus assessed as bacterial growth inhibition incubated for 16 hrs; type: functional
# [25] = Plasmodium falciparum, read-out: IC50
compound,measurement,setting,value
O=C(CSc1nnc(C2CCN(c3ncnc4ccccc34)CC2)n1-c1ccccc1)Nc1ccccc1[N+](=O)[O-],EC50,[1],34.5 µg/mL
CCN(CC)c1ccc2cc(C(=O)NNC(=O)Cn3nc(C)n(N)c3=O)c(=O)oc2c1,IC50,[2],3.1 µg/mL
same,IC50,[3],3.1 µg/mL
same,IC50,[4],3.1 µg/mL
same,IC50,[5],3.1 µg/mL
CC(=O)OC1CCN(CC(O)(Cn2cncn2)c2ccc(F)cc2F)CC1 (centres undefined),MIC80,[6],9 nM
CC(C)C(C(=O)O)N1C(N)=NNC1(C)c1ccccc1O (centres undefined),Ratio IC50,[7],36
same,IC50,[8],0.0312 µg/mL
same,Ratio IC50,[9],36
NC1=NNC(c2ccccc2O)N1C(Cc1cc2ccccc2[nH]1)C(=O)O (centres undefined),Ratio IC50,[7],36
same,IC50,[8],0.0312 µg/mL
same,Ratio IC50,[9],36
OC1(c2nnc(-c3ccncc3)[nH]2)CCCCC1,MIC,[10],0.59 µg/mL
O=c1cc(Cn2cc(Cn3cnn(-c4ccccc4)c3=O)nn2)c2c(ccc3ccccc32)o1,MIC,[11],1.6 µg/mL
same,Ratio,[12],2
Brc1ccc(OCc2nn3c(-c4ccc(Br)cc4)nnc3s2)cc1,MIC,[13],14.4 µg/mL
same,IC50,[14],14.42 µg/mL
CCCCCCC(=O)OC1CCN(CC(O)(Cn2cncn2)c2ccc(F)cc2F)CC1 (centres undefined),MIC80,[6],9 nM
COc1ccc(-n2ncn(Cc3cn(Cc4cc(=O)oc5ccc(Cl)cc45)nn3)c2=O)cc1,MIC,[11],1.6 µg/mL
same,Ratio,[12],2
COc1cccc(NC(=O)CSc2nnc(C3CCN(c4ncnc5ccccc45)CC3)n2-c2ccccc2)c1,EC50,[1],34.5 µg/mL
OC1CCC(C(O)c2nnc(-c3ccncc3)[nH]2)CC1O (centres undefined),MIC,[10],0.59 µg/mL
COc1ccc(/N=c2\scc(-c3cc4ccccc4oc3=O)n2-n2c(C)nn(-c3ccc(Br)cc3)c2=O)cc1,IC50,[15],0.16 µg/mL
COc1ccc(-n2ncn(Cc3cn(Cc4cc(=O)oc5ccc6ccccc6c45)nn3)c2=O)cc1,MIC,[11],1.6 µg/mL
same,Ratio,[12],2
Cc1nn(-c2ccccc2)c(-n2cncn2)c1-c1cc(-c2ccc(O)cc2)cc2nc3ccccc3n12,IC50,[16],0.041 µg/mL
same,IC50,[16]; [25],0.054 µg/mL
COc1cc(C(=O)n2nc(-c3ccc(Br)cc3)nc2N)cc(OC)c1OC,IC50,[17],< 1 µM
same,IC50,[18],< 1 µM
same,IC50,[19],< 1 µM
same,IC50,[20],< 1 µM
same,IC50,[21],< 1 µM
Nn1c(Cc2ccc(Br)cc2)nn(CC(=O)NNC(=O)c2cc3cc(Cl)cc(Cl)c3oc2=O)c1=O,IC50,[2],3.1 µg/mL
same,IC50,[3],3.1 µg/mL
same,IC50,[4],3.1 µg/mL
same,IC50,[5],3.1 µg/mL
COc1cccc(-c2nc(N)n(C(=O)c3cc(OC)c(OC)c(OC)c3)n2)c1,IC50,[17],< 1 µM
same,IC50,[18],< 1 µM
same,IC50,[19],< 1 µM
same,IC50,[20],< 1 µM
same,IC50,[21],< 1 µM
O=C(OC1CCN(CC(O)(Cn2cncn2)c2ccc(F)cc2F)CC1)C(F)(F)F (centres undefined),MIC80,[6],9 nM
Cc1nn(-c2ccccc2)c(-n2cncn2)c1-c1cc(-c2ccc(F)cc2)cc2nc3ccccc3n12,IC50,[16],0.041 µg/mL
same,IC50,[16]; [25],0.041 µg/mL
C(/C=C/c1ccc2c(c1)OCO2)=C\C1=NNC(SCc2ccccc2)N1C1CCCCC1 (centres undefined),IC50,[22],3.61 µM
same,IC50,[23],3.18 µM
Cc1nn(-c2ccccc2)c(-n2cncn2)c1-c1cc(-c2ccc(-c3cccs3)cc2)cc2nc3ccccc3n12,IC50,[16]; [25],0.041 µg/mL
CC1CCC(O)(c2nnc(-c3ccncc3)[nH]2)CC1 (centres undefined),MIC,[10],0.59 µg/mL
Nn1c(Cc2ccc(Cl)cc2)nn(CC(=O)NNC(=O)c2cc3cc(Cl)cc(Cl)c3oc2=O)c1=O,IC50,[2],3.1 µg/mL
same,IC50,[3],3.1 µg/mL
same,IC50,[4],3.1 µg/mL
same,IC50,[5],3.1 µg/mL
O=C(CSc1nnc(C2CCN(c3ncnc4ccccc34)CC2)n1-c1ccccc1)Nc1ccc(F)cc1F,EC50,[1],34.5 µg/mL
CC(C)(C)C(=O)OC1CCN(CC(O)(Cn2cncn2)c2ccc(F)cc2F)CC1 (centres undefined),MIC80,[6],9 nM
COc1ccc(/C=N/n2c(S)nnc2CNC(=O)c2ccccc2)cc1,MIC,[24],3.12 µg/mL
COc1ccc(-c2cc(-c3c(C)nn(-c4ccccc4)c3-n3cncn3)n3c(c2)nc2ccccc23)cc1,IC50,[16]; [25],0.041 µg/mL
S=c1[nH]nc(/C=C/C=C/c2ccc3c(c2)OCO3)n1C1CCCCC1,IC50,[22],8.87 µM
same,IC50,[23],18.3 µM
Cc1ccc(-c2cc(-c3c(C)nn(-c4ccccc4)c3-n3cncn3)n3c(c2)nc2ccccc23)cc1,IC50,[16]; [25],0.041 µg/mL
CCCCCCCC(=O)OC1CCN(CC(O)(Cn2cncn2)c2ccc(F)cc2F)CC1 (centres undefined),MIC80,[6],9 nM
Cc1nn(-c2ccccc2)c(=O)n1-n1c(-c2cc3ccccc3oc2=O)cs/c1=N\c1ccccc1,IC50,[15],0.16 µg/mL
CCCCSC1NN=C(/C=C/C=C/c2ccc3c(c2)OCO3)N1C1CCCCC1 (centres undefined),IC50,[22],3.61 µM
same,IC50,[23],3.18 µM
O=C(CSc1nnc(C2CCN(c3ncnc4ccccc34)CC2)n1-c1ccccc1)Nc1cccc([N+](=O)[O-])c1,EC50,[1],34.5 µg/mL
